Earlier results on 13 molecules are cited in US9682037B2, “Non-mucoadhesive film dosage forms” (APR APPLIED PHARMA RESEARCH S.A., priority 2006, dated 2017).

The Tmax is the time at which the peak concentration occurs. Usually Cmax stands for the peak of the concentration-time curve.

For data set [1] the following is noted: oral.
[2] abbreviates: oral 5 mg once daily for 10 days, normal healthy volunteers.

Counter-ions that a name gives are not always drawn. Like-named read-outs stand apart in the source and are kept apart here.

Regarding `Cc1nccn1CC1CCc2c(c3ccccc3n2C)C1=O` (racemic) [Ondansetron Base, (±) 1,2,3,9 tetrahydro-9-methyl-3-[(2-methyl-1H-imidazol-1-yl)methyl]-4H-carbazol-4-one], the Bioavailability entry (8 mg tablet) is given as “(56% for 8 mg tablet)”. Also, for the setting “healthy subjects”, the “Bioavailability in Healthy Subjects” value is reported as “Bioavailability in Healthy Subjects = ca. 45-75%”. In addition, the Tmax result (in vivo) was “Tmax = 1.5-2.5 Hours hours”. Also, where the note is “result in words”, the “Effect of food on absorption” value was “Bioavailability slightly enhanced by food” and the “Linearity / dose proportionality of pharmacokinetics” value (“Linearity / dose proportionality” for short) is “Plasma concentrations are not dose”.

On to `Cc1nnc2n1-c1ccc(Cl)cc1C(c1ccccc1)=NC2` [Alprazolam], for which the Tmax entry (in vivo) is recorded as “Tmax = 1-2 hours”. Besides, under “over 0.3-3.0 mg dose range”, the maximum concentration (Cmax) entry is “Cmax = 8.0-37 ng/ml over 0.3-3.0 mg dose range”. For the same molecule, for the setting “result in words”, the “Linearity / dose proportionality” value was “Plasma levels proportionate to dose given”.

As for `O=C1CN=C(c2ccccc2Cl)c2cc([N+](=O)[O-])ccc2N1` [Clonazepam], for the setting “in vivo”, the “Absolute Bioavailability” value is “Absolute bioavailability = ca. 90%” and the time of peak concentration (Tmax) entry was “Tmax = 1-4 hours”.

Turning to `Clc1ccc2c(c1)CCc1cccnc1C2=C1CCNCC1` [Desloratadine, 8-chloro, 6,11-dihydro-11-(4-piperdinylidene)-5H-benzo[5,6]cyclohepta[1,2-b]pyridine], under setting [2], the AUC result is “AUC = 56.9 ng hr/ml*” and the time of peak concentration (Tmax) entry was “Tmax = 3.0 hours*”.

Consider `COc1ccc2c3c1O[C@H]1C[C@@H](O)C=C[C@@]31CCN(C)C2` [Galantamine HBr], for which the time to peak (Tmax) result (fasted) was “Tmax = ca. 60 minutes (fasted)”. Besides, where the note is “in vivo”, the “Absolute Bioavailability” value is on record as “Absolute bioavailability −= ca. 90%”. In addition, the “Administration with food delays absorption (Tmax) by” value (with food) is 1.5 h.

As for `O=C1Nc2ccc(Cl)cc2C(c2ccccc2Cl)=NC1O` (centres unmarked) [Lorazepam], under “2 mg”, the Cmax is 20 ng/mL. Where the note is “in vivo”, the “Absolute Bioavailability” value was “Absolute bioavailability = ca. 90%” and the Tmax entry is reported as “Tmax = ca. 120 minutes”. Besides, the “Linearity / dose proportionality” value (result in words) is recorded as “dose proportionate”.

Turning to `Cc1cc2c(s1)Nc1ccccc1N=C2N1CCN(C)CC1` [Olanzapine, 2-methyl-4-(4-methyl-1-piperazinyl)-10H-thieno[2,3-b][1,5]benzodiazepine], the “steady state conc. relative to conc. after single doses” value (administration once daily) is “ca. twice the conc. after single doses”. In addition, where the note is “in vivo”, the “Absolute Bioavailability” value was “Absolute Bioavailability = ca. 60%” and the time to peak (Tmax) result was “Tmax = 6.0 hours”. In addition, the “Linearity / dose proportionality” value (result in words) is reported as “Linear pharmacokinetics over clinical dosing”.

On to `Cc1nc2n(c(=O)c1CCN1CCC(c3noc4cc(F)ccc34)CC1)CCCC2` [Risperidone], for which, where the note is “in vivo”, the “Absolute Bioavailability” value was “Absolute Bioavailability = ca. 70% (CV = 25%)” and the Tmax result is listed as “Tmax = 1.0 hour hours”.

Consider `CCN(C)C(=O)Oc1cccc([C@H](C)N(C)C)c1` [Rivastigmine Tartrate], for which, for the setting “3.0 mg dose”, the “Absolute Bioavailability” value is “Absolute Bioavailability = ca. 36% for 3.0 mg”. Moreover, the “increase in AUC on doubling dose” value (doubling dose from 3 to 6 mg BID) is reported as “Doubling dose from 3 to 6 mg BID → three fold”. Also, the time of peak concentration (Tmax) result (fasted) was “Tmax = 1.0 hours (fasted state)”. Moreover, where the note is “result in words”, the “Linearity / dose proportionality” value was “Linear pharmokinetics up to 3 mg BID”. Under “with food”, the “Administration with food delays absorption (Tmax) by” value was 1.5 h and the “Food decreases/lowers Cmax by” value is roughly 30%.

`CCCc1nn(C)c2c(=O)[nH]c(-c3cc(S(=O)(=O)N4CCN(C)CC4)ccc3OCC)nc12` [Sildenafil Citrate]: where the note is “fasted”, the time of peak concentration (Tmax) was 0.5 to 2 h. In addition, the Cmax entry (fasted, 100 mg dose) was “Cmax = ca. 450 ng/ml.(fasted) (100 mg dose)”. For the same molecule, under “in vivo”, the “Absolute Bioavailability” value is reported as “Absolute bioavailability = ca. 40%”.

As for `CNS(=O)(=O)Cc1ccc2[nH]cc(CCN(C)C)c2c1` [Sumatriptan Succinate, 3-[2-(dimethylamino)ethyl]-N-methyl-indole-5-methanesulfonamide], where the note is “25 mg”, the highest concentration (Cmax) is 18 ng/mL and the Cmax range is 7 to 47 ng/mL. Further, under “100 mg”, the Cmax was 51 ng/mL and the Cmax range result is “(range 28-100 ng/ml) (100 mg)”. Also, where the note is “100 mg tablets”, the “High fat meal: AUC increased by” value is listed as 12% and the “High fat meal: Cmax increased by” value is given as 15%. Also, the Tmax (during migraine attack) was roughly 2.5 h. Besides, for the setting “in vivo”, the “Absolute Bioavailability” value is “Absolute bioavailability = ca. 15%”; the “Cmax during a migraine attack versus when migraine free” value is “Cmax is same during a migraine attack and when”. Also, the “Linearity / dose proportionality” value (result in words) is given as “Single dose → dose proportionality in extent of”. Also, under “when migraine free”, the Tmax was roughly 2.0 h.

On to `CCCc1nc(C)c2c(=O)[nH]c(-c3cc(S(=O)(=O)N4CCN(CC)CC4)ccc3OCC)nn12` [Vardenafil HCl], for which, for the setting “fasted”, the Tmax was 0.5 to 2 h and the Tmax median is 1 h. Where the note is “fasted, 20 mg dose”, the highest concentration (Cmax) is 10 to 25 ng/mL and the Cmax median is roughly 18 ng/mL. Also, the “Administration with high fat meal lowers Cmax by” value (high fat meal) is “Cmax by ca. 18-50%”. In addition, under “in vivo”, the “Absolute Bioavailability” value was “Absolute bioavailability = ca. 15%”.

For the molecule `CNC[C@H](O)c1cccc(O)c1` [phenylephrine], in data set [1], the “absolute bioavailability when ingested orally” value is “approximately 40%” and the “time to peak plasma concentrations” value was 1 to 2 h.
